Measurements taken from US20200376007A1, “THERAPEUTIC COMPOUNDS AND METHODS OF USE THEREOF” (REGENTS OF THE UNIVERSITY OF MINNESOTA, priority 2019, published 2020).

Each compound was assayed against T1, human TGR5 receptor (Homo sapiens, UniProt Q8TDU6) (assay: TGR5 cAMP assay). Conditions: TGR5 agonist activity; cAMP production in a recombinant cell line expressing human TGR5 receptor.
T1 construct: expressed in transfected cells
T1 sequence (Q8TDU6 1-330): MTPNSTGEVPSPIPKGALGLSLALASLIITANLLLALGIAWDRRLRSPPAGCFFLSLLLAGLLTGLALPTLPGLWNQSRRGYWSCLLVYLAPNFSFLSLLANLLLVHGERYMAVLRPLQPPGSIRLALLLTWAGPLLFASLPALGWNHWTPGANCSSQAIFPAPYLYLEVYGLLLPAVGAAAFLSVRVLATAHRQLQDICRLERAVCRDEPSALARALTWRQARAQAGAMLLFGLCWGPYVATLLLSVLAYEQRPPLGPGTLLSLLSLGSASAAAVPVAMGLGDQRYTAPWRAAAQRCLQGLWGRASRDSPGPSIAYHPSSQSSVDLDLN
Type: cell-based
Protocol: TGR5 agonist activity was evaluated by assaying cAMP production in a recombinant cell line expressing human TGR5 receptor.

Row | SMILES | EC50
1 | CO[C@@H]1C[C@@H]2C[C@H](O)CC[C@]2(C)[C@H]2CC[C@]3(C)[C@@H]([C@H](C)CCC(=O)O)CC[C@H]3[C@H]12 [Example 3, (R)-4-((3R,5S,7R,8R,9S,10S,13R,14S,17R)-3-hydroxy-7-methoxy-10,13-dimethylhexadecahydro-1H-cyclopenta[a]phenanthren-17-yl)pentanoic acid] | 74.9 nM
2 | COCCOCCNC(=O)CC[C@@H](C)[C@H]1CC[C@H]2[C@@H]3[C@H](OC)C[C@@H]4C[C@H](O)CC[C@]4(C)[C@H]3CC[C@]12C [Example 4, (R)-4-((3R,5S,7R,8R,9S,10S,13R,14S,17R)-3-hydroxy-7-methoxy-10,13-dimethylhexadecahydro-1H-cyclopenta[a]phenanthren-17-yl)-N-(2-(2-methoxyethoxy)ethyl)pentanamide] | 49.5 nM
3 | COCc1nnc(CC[C@@H](C)[C@H]2CC[C@H]3[C@@H]4[C@H](OC)C[C@@H]5C[C@H](O)CC[C@]5(C)[C@H]4CC[C@]23C)o1 [Example 5, (3R,5S,7R,8R,9S,10S,13R,14S,17R)-7-methoxy-17-((R)-4-(5-(methoxymethyl)-1,3,4-oxadiazol-2-yl)butan-2-yl)-10,13-dimethylhexadecahydro-1-cyclopenta[a]phenanthren-3-ol] | 22.6 nM
4 | CO[C@@H]1C[C@@H]2C[C@H](O)CC[C@]2(C)[C@H]2CC[C@]3(C)[C@@H]([C@H](C)CCC(=O)NC[C@H](O)[C@@H](O)[C@H](O)[C@H](O)CO)CC[C@H]3[C@H]12 [Example 6, (R)-4-((3R,5S,7R,8R,9S,10S,13R,14S,17R)-3-hydroxy-7-methoxy-10,13-dimethylhexadecahydro-1H-cyclopenta[a]phenanthren-17-yl)-N-((2S,3R,4R,5R)-2,3,4,5,6-pentahydroxyhexyl)pentanamide] | 27.7 nM
5 | CO[C@@H]1C[C@@H]2C[C@H](O)CC[C@]2(C)[C@H]2CC[C@]3(C)[C@@H]([C@H](C)CCC(=O)N(C)C[C@H](O)[C@@H](O)[C@H](O)[C@H](O)CO)CC[C@H]3[C@H]12 [Example 7, (R)-4-((3R,5S,7R,8R,9S,10S,13R,14S,17R)-3-hydroxy-7-methoxy-10,13-dimethylhexadecahydro-1H-cyclopenta[a]phenanthren-17-yl)-N-methyl-N-((2S,3R,4R,5R)-2,3,4,5,6-pentahydroxyhexyl)pentanamide] | 60.1 nM
